Several values for one entry are separate records, joined by “and”; a condition that tells them apart may be missing. Identical values can stand only once.

Assay [1] in a line: Clinical course of the disease in infected hamsters (normalized weight, clinical signs). Type of assay: in vivo, Syrian hamsters. The settings on record: Favipiravir IP 926mg/kg/day BID, inoculum 104 TCID50, sacrifice day 3, Figure 3, individual animals. How it is done: Three-week-old female Syrian hamsters were provided by Janvier Labs (SPF status). Animals were maintained in ISOcage P - Bioexclusion System (Techniplast) with unlimited access to water/food and 14h/10h light/dark cycle. A wooden gnawing block and extra bedding material was provided as cage enrichment. Animals were weighed and monitored daily for the duration of the study to detect the appearance of any clinical signs of illness/suffering. General anesthesia was obtained with isoflurane (Isoflurin®, Axience). Euthanasia, which was also realized under general anesthesia, was performed by cervical dislocation.
Groups of 6 hamsters were intranasally infected with 10^4 TCID50 of virus. a Experimental timeline. b, f, j Viral replication in lung based on infectious titers (measured using a TCID50 assay) expressed in TCID50/g of lung (n=6 animals/group). c, g, k Viral replication in lung based on viral RNA yields (measured using an RT-qPCR assay) expressed in viral genome copies/g of lung (n=6 animals/group). d, h, l Plasma viral loads (measured using an RT-qPCR assay) are expressed in viral genome copies/mL of plasma (the dotted line indicates the detection threshold of the assay) (n=6 animals/group). e, i, m Clinical course of the disease (n=6 animals/group). Normalized weight at day n was calculated as follows: % of initial weight of the animal at day n. Data represent mean ± SD (Details in Supplementary Data 2).

In another assay the test system is SARS-CoV-2. Briefly: Hamster model of SARS-CoV-2 infection, oral NTZ treatment (lung infectious titers, lung viral RNA yields, plasma viral loads). The assay is classed as in vivo, Syrian hamsters. On the set-up: Lung Infectious titers / Plasmatic viral RNA yields / Lung Viral RNA yields: unit not given here.
Where [2] appears, read: FVP 926mg/kg/day BID intraperitoneally, 3 dpi.
The mark [3] stands for this setting: Favipiravir IP 926mg/kg/day BID, inoculum 104 TCID50, sacrifice day 3, Figure 3, individual animals, 926 mg/kg/day.

Experimental for SARS-CoV-2: After one week of acclimatisation, four-week-old anesthetized animals were intranasally infected with 50µL containing 10^4 TCID50 of virus in 0.9% sodium chloride solution. The mock-infected group was intranasally inoculated with 50 µL of 0.9% sodium chloride solution.
The solution was prepared with 0.5% of hydroxypropyl methylcellulose and 0.1% of tween 80. […] A solution of favipiravir, reconstituted from anhydrous favipiravir (Toyama-Chemical) with 0.9% sodium chloride solution, was used for intra-peritoneally and intranasally treatment. Control group were orally or intranasally inoculated with a 0.9% sodium chloride solution.
Lungs, nasal turbinates and blood were collected immediately after euthanasia. The left pulmonary lobe was first rinsed in 10mL of 0.9% sodium chloride solution, blotted with filter paper and weighed. Nasal turbinates and pulmonary lobes were transferred to a 2mL tube containing respectively 500µL or 1mL of 0.9% sodium chloride solution and 1mm or 3mm glass beads. They were crushed using a Tissue Lyser machine (Retsch MM400) for 5min at 30 cycles/s and then centrifuged 10 min at 16,200g. Crushed nasal tubinates were stored at -80°C while lung supernatant media were transferred to a 1.5mL tube, for another centrifugation during 10 min at 16,200g prior being stored at -80°C. One milliliter of blood was harvested in a 2mL tube containing 100µL of 0.5M EDTA (Life Technologies). Blood was centrifuged for 10 min at 16,200g and stored at -80°C.
Quantification was provided by four 2 log serial dilutions of an appropriate T7-generated synthetic RNA standard of known quantities (10^2 to 10^8 copies/reaction). Amplification was performed with the QuantStudio 12K Flex Real-Time PCR System (Applied Biosystems) using standard fast cycling parameters: 10min at 50°C, 2 min at 95°C, and 40 amplification cycles (95°C for 3 sec followed by 30sec at 60°C). qPCR (ɣ-actine gene detection) was performed under the same condition as RT-qPCR with the following modifications: we used the Express one step qPCR Universal kit (ThermoFisher Scientific) and the 50°C step of the amplification cycle was removed. Results were analyzed using QuantStudio 12K Flex Applied Biosystems software v1.2.3.
To determine infectious titers, 96-well culture plates containing confluent Vero E6 cells were inoculated with 150μL per well of serial dilutions of each sample (ten-fold or four-fold dilutions when analyzing cell supernatant media or lung clarified homogenates respectively). Each dilution was performed in sextuplicate. After 5 days of incubation, plates were read for the absence or presence of cytopathic effect in each well. Infectious titers were estimated using the method characterized by Reed & Muench.[30]
Untreated groups of 6 hamsters received the suspension vehicle BID or TID. A group of 6 animals was treated with favipiravir (FVP) intraperitoneally (926mg/kg/day BID) as positive control in one experiment.[24]

`NC(=O)c1nc(F)c[nH]c1=O` [FVP, favipiravir]: in assay [1], the “Normalized weights Day 0” value was determined as 100. Further, in assay [1] (926 mg/kg/day), the “Normalized weights Day 1” value was 104.7 and 102.8 and 102.5 and 104.5 and 103.7 and 104.9; the “Normalized weights Day 2” value is 101.3 and 102.5 and 100.8 and 100.6 and 94.2 and 104.4; the “Normalized weights Day 3” value is 97.1 and 105.0 and 92.2 and 91.0 and 105.5 and 105.7. Also, in the assay on SARS-CoV-2 (setting [2]), the “infectious titers in clarified lung homogenates vs untreated animals” value is “significant reductions” and the “viral RNA yields in clarified lung homogenates vs untreated animals” value is recorded as “significant reductions”. In the assay on SARS-CoV-2 (setting [3]), the “Lung Infectious titers” value was 6.755 and 6.354 and 7.035 and 6.515 and 6.109 and 6.625; the “Lung Viral RNA yields” value is 6.542 and 6.443 and 6.907 and 6.536 and 6.197 and 6.702. Moreover, the “Plasmatic viral RNA yields” value in the assay with SARS-CoV-2 (Favipiravir IP 926mg/kg/day BID, inoculum 104 TCID50, sacrifice day 3, Figure 3, individual animals, ¤ : Detection threshold at 1000 cp/ml, 926 mg/kg/day) was 3.034 and 2.169 and 2.511 and 5.618.

Values taken from paper PMC9271885 (eBioMedicine, 2022).
